Literature values in patent US20060246003A1, “Composition containing anti-dementia drug” (priority 2004, published 2006).
Structures can show the parent of a compound that is named as a salt.

Test system: patients with moderate to severe Alzheimer-type dementia
Conditions: memantine hydrochloride added in patients already administered donepezil hydrochloride, compared to placebo group

In the case of `CC12CC3CC(C)(C1)CC(N)(C3)C2` [memantine hydrochloride], the “cognitive ability and activities of daily living” value is given as “improved”.
